Literature values in patent US20190167649A1, “TOPICAL RAPAMYCIN THERAPY” (THE BOARD OF REGENTS OF THE UNIVERSITY OF TEXAS SYSTEM, priority 2016, published 2019).

Rapamycin
solubility in organic solvents (benzyl alcohol, chloroform, acetone, and acetonitrile): freely soluble | solubility in water (water): 2.6 µg/mL
